Patent publication US7642369B2, “Epoxyketone-based immunoproteasome inhibitors” (University of Kentucky Research Foundation, priority 2006, dated 2010)
“Also recorded” adds a separate entry of the source. Read-outs that look alike come from different tables or passages of the source.

Assays:
[1] = tested on: proteasome subunits LMP7/X and LMP2; test: Competition screening assay in EL4 cells with biotin-dihydroeponemycin probe, streptavidin-HRP western blot; assay type: binding, Murine; details: for Proteasome subunit binding and specificity, competition against biotin-dihydroeponemycin labelling: EL4 cells, 30 min pre-incubation, 1 hr probe, western blot
Experimental: (§1) Med. Chem. Lett. 9, 3335-3340 (1999) (herein incorporated by reference); and “Towards Immunoproteasome-Specific Inhibitors: An Improved Synthesis of Dihydroeponemycin.” Specifically, various concentrations of these compounds were pre-incubated in EL4 cells at 37° C. for 30 min. […] After cells were lysed, whole cell lysates were analyzed using 12% SDS-PAGE and transferred to PVDF membranes. Biotinylated proteins were then visualized using streptavidin-horseradish peroxidase (HRP) and enhanced chemiluminescence (ECL).
(§2) The western blots were performed using EL4 cells pre-incubated with proteasome inhibitors for 30 min before treating with biotinylated compounds. After 1 hr incubation, cells were lysed, and analyzed by western blot using streptavidin-HRP and ECL.
Similar competition assays were performed to screen for immunoproteasome inhibitors in a EL4 cell model system. EL4 cell system was chosen since these cells highly express catalytic subunits of both the constitutive and immunoproteasomes.
(§3) Cell Culture and Screening Assay: Murine lymphoma EL4 (ATCC) cells were grown in RPMI medium (Gibco), 10% fetal bovine serum and 1% penicillin and streptomycin at […] in a 5% CO2 incubator. […] The cells were then incubated for an additional 1 hour. Cell lysates were analyzed by 12% SDS-PAGE and transferred to PVDF membrane. Proteins that were covalently modified by biotinylated compounds were visualized by enhanced chemiluminescence using streptavidin conjugated horseradish peroxidase (Sigma-Aldrich) or anti-LMP2 (Affinity BioReagents) and Biomax X-ray film (Kodak).

20S immunoproteasome = test: Enzyme kinetics: inhibition of chymotrypsin-like activity of purified 20S immunoproteasome, fluorogenic substrate Suc-Leu-Leu-Val-Tyr-AMC; assay type: biochemical, bovine; details: for Kobs/[I], 20S immunoproteasome: purified 20S immunoproteasome; for Relative selectivity: immunoproteasome/regular proteasome, normalized against epoxomicin
Experimental: (§4) Since LMP2 is a major catalytic subunit responsible for chymotrypsin-like activity, inactivation of the LMP2 subunit inhibits proteolytic activity of immunoproteasome. […] Enzyme kinetics experiments were also carried out with the purified 20S constitutive proteasome as control.
(§5) Enzyme kinetics were performed by measuring the chymotrypsin-like activity of 20S immunoproteasome and regular proteasome in the presence of compound 15 using a fluorogenic peptide substrate.
(§6) Enzyme Kinetic Studies: kassociation values were determined as follows. Inhibitors were mixed with a fluorogenic peptide substrate and assay buffer [20 mM Tris (pH 8.0), 0.5 mM EDTA, and 0.035% SDS] in a 96-well plate. The chymotrypsin-like activity was assayed using the fluorogenic peptide substrates Suc-Leu-Leu-Val-Tyr-AMC (Sigma-Aldrich). Hydrolysiswas initiated by the addition of bovine 20S proteasome or immunoproteasome (Biomol International), and the reaction was followed by fluorescence (360-nm excitation/460-nm detection) using a Microplate Fluorescence Reader (FL600; Bio-Tek Instruments, Inc., Winnoski, Vt.) employing the software KC4 v.2.5 (Bio-Tek Instruments, Inc., Winooski, Vt.). Reactions were allowed to proceed for 60-90 min, and fluorescence data were collected every 1 min. Fluorescence was quantified as arbitrary units and progression curves were plotted for each reaction as a function of time. kobserved/[I] values were obtained using PRISM program by nonlinear least squares fit of the data to the following equation: fluorescence=vst+[(v0−vs)/kobserved][1−exp(−kobserved t)], where v0 and vs are the initial and final velocities, respectively, and kobserved is the reaction rate constant. […] Reactions were performed using inhibitor concentrations that were <100-fold of those of the proteasome assayed.

20S regular proteasome = biological target: T1, 20S regular proteasome (Bos taurus, UniProt Q2TBX6+Q32KL2); test: Enzyme kinetics: inhibition of chymotrypsin-like activity of purified 20S constitutive (regular) proteasome, fluorogenic substrate Suc-Leu-Leu-Val-Tyr-AMC; assay type: biochemical, bovine; details: for kinact/KI: read-out: Kobs/[I], 20S regular proteasome
T1 construct: purchased Biomol International
Experimental: as §4, §5, §6

LMP2 subunit = biological target: T2, LMP2 subunit (Mus musculus, UniProt O35955+P28076); test: LMP2 mobility shift in EL4 cells, western blot with anti-LMP2 antibody; assay type: binding, Murine; details: 1 hr at 37° C.; for Covalent modification of LMP2, mobility shift of adduct on SDS PAGE: anti-LMP2 western blot
T2 construct: sufficient to modify LMP2 subunits present in cells; endogenous in cells; host or cells: EL4 murine lymphoma cells (ATCC)
Experimental: The mobility shift of LMP2:15 adduct was investigated to further verify that compound 15 covalently modifies the LMP2 subunit (FIG. 5). After EL4 cells were incubated with compound 15 or assay probes (Biotin-EPX and Biotin-EPN) for 1 hr at 37° C., cells were lysed and boiled for 15 min. Whole cell proteins were then analyzed by western blot using anti-LMP2 antibody.
Since molecular weights of the LMP2 subunit are increased by 828.08 (for biotin-epoxomicin) and 1078.45 (for biotin-dihydroeponemycin), assay probe-LMP2 adducts are expected to show a slower mobility as compared to free LMP2 (lanes 1-3, FIG. 5). […] It can be explained by a smaller molecular weight of compound 15 (484.76) compared to assay probes (828.08 and 1078.45). […] LMP2 inhibitor efficiently blocks the proteolytic activity of immunoproteasome with high specificity. Screening assay and mobility shift studies have shown that compound 15 selectively inactivates the LMP2 subunit via covalent modification. Since LMP2 is a major catalytic subunit responsible for chymotrypsin-like activity, inactivation of the LMP2 subunit inhibits proteolytic activity of immunoproteasome. Confirmation of this is provided by enzyme kinetics studies performed using purified 20S immunoproteasome. Enzyme kinetics experiments were also carried out with the purified 20S constitutive proteasome as control.
as §3

[2] = tested on: proteasome subunits Z, MECL1, LMP7 and X; test: Competition screening assay in EL4 cells with biotin-epoxomicin probe, streptavidin-HRP western blot; assay type: binding, Murine; details: 30 min pre-incubation, 1 hr probe
Experimental: as §1, §2
Preincubation of EL4 cells with 1 μM of compound 15 (one equivalent of assay probe) was sufficient to selectively modify the catalytic threonine residue of LMP2 subunit, thereby preventing further modification of LMP2 subunit by biotin-dihydroeponemycin, resulting in selective attenuation of LMP2 protein band on western blot.
Cell Culture and Screening Assay: Murine lymphoma EL4 (ATCC) cells were grown in RPMI medium (Gibco), 10% fetal bovine serum and 1% penicillin and streptomycin at […] in a 5% CO2 incubator. […] Cell lysates were analyzed by 12% SDS-PAGE and transferred to PVDF membrane. […]

RPMI8226 (MM) = test: Cell proliferation assay by counting cell numbers after 24 h incubation; assay type: cell-based; details: cell number after 24 h incubation
Experimental: (§7) To compare the efficacy of the present LMP2 inhibitor compounds and, in particular, LMP2 inhibitor 15, as compared to prior known inhibitors, comparative tests were conducted using compound 21 in expressing tumor cells. LMP2 inhibitor compound 21 blocked proliferation of lung cancer H460, prostate cancer cells PC3 and multiple myeloma cells RPMI8226, as summarized in Table 2, below.

H460 (Lung) = test: as above; assay type: cell-based; details: cell number after 24 h incubation
Experimental: as §7

PC3 (Prostate) = test: as above; assay type: cell-based; details: cell number after 24 h incubation
Experimental: as §7

WI-38 (Fibroblast) = test: as above; assay type: cell-based; details: cell number after 24 h incubation

Structure (SMILES): CCCCCCC(=O)N[C@@H](CO)C(=O)N[C@@H](CC(C)C)C(=O)[C@@]1(COCOCCOC)CO1 [Compound 12]
- Proteasome subunit binding and specificity, competition against biotin-dihydroeponemycin labelling [1]: selectively targeting the immunoproteasome subunit LMP2; also recorded: high specificity towards LMP2 was achieved

Structure (SMILES): CCCCCCC(=O)N[C@@H](C)C(=O)N[C@@H](CC(C)C)C(=O)[C@@]1(CO)CO1 [Compound 9]
- Proteasome subunit binding and specificity, competition against biotin-dihydroeponemycin labelling [1]: LMP7/X and LMP2 protein bands are competed away

Structure (SMILES): CCCCCCC(=O)N[C@@H](C)C(=O)N[C@@H](CC(C)C)C(=O)[C@@]1(CO[Si](C)(C)C(C)(C)C)CO1 [Compound 15]
- Kobs/[I], 20S immunoproteasome (20S immunoproteasome; chymotrypsin-like activity): 83 ± 27 M^−1S^−1
- higher selectivity toward the 20S immunoproteasome in comparison to dihydroeponemycin (20S immunoproteasome; chymotrypsin-like activity, versus dihydroeponemycin): 5 fold
- higher selectivity toward the 20S immunoproteasome in comparison to epoxomicin (20S immunoproteasome; chymotrypsin-like activity, versus epoxomicin): 24 fold
- Inhibition of chymotrypsin-like activity of 20S immunoproteasome (in words) (20S immunoproteasome; fluorogenic peptide substrate): displayed a better inhibitory activity against the immunoproteasome; also recorded: time- and concentration-dependent inhibition
- Relative selectivity (20S immunoproteasome): 24
- Concentration sufficient to selectively modify the catalytic threonine residue of LMP2 subunit ([1]; EL4 cells preincubated, one equivalent of assay probe (biotin-dihydroeponemycin)): 1 µM
- Proteasome subunit binding and specificity, competition against biotin-dihydroeponemycin labelling [1]: selectively targeting the immunoproteasome subunit LMP2; also recorded: even higher specificity towards the LMP2 subunit was obtained
- Inhibition of chymotrypsin-like activity of 20S regular proteasome (in words) (20S regular proteasome; fluorogenic peptide substrate): poorly inhibited the chymotrypsin-like activity of 20S regular proteasome
- kinact/KI (20S regular proteasome): 49 ± 18 M⁻¹ s⁻¹
- Covalent modification of LMP2, mobility shift of adduct on SDS PAGE (LMP2 subunit): covalently modify the immunoproteasome subunit LMP2
- Covalent modification of LMP2, mobility shift of adduct on SDS PAGE (LMP2 subunit; listed as compound 15): slower mobility for the LMP2-15 adduct on SDS PAGE was clearly shown as compared to free LMP2
- Concentration sufficient to modify LMP2 subunits present in cells (LMP2 subunit; mobility shift): 1 µM

Structure (SMILES): CC(C)CCCCC(=O)N[C@@H](CO)C(=O)N[C@@H](CC(C)C)C(=O)[C@@]1(CO)CO1 [Dihydroeponemycin, dihydroeponemycin, reference compound]
- Kobs/[I], 20S immunoproteasome (20S immunoproteasome; chymotrypsin-like activity): 251 ± 121 M^−1S^−1
- Relative selectivity (20S immunoproteasome): 5
- Proteasome subunit binding and specificity, competition against biotin-dihydroeponemycin labelling [1]: LMP7/X and LMP2 protein bands are competed away; also recorded: do not have specificity towards subunits of either the constitutive or immunoproteasomes
- kinact/KI (20S regular proteasome; chymotrypsin-like activity, purified 20S constitutive proteasome): 721 ± 84 M⁻¹ s⁻¹

Structure (SMILES): CC[C@H](C)[C@H](NC(=O)[C@H]([C@@H](C)CC)N(C)C(C)=O)C(=O)N[C@H](C(=O)N[C@@H](CC(C)C)C(=O)[C@@]1(C)CO1)[C@@H](C)O [Epoxomicin, epoxomicin]
- Kobs/[I], 20S immunoproteasome (20S immunoproteasome; chymotrypsin-like activity): 3,044 ± 1,423 M^−1S^−1
- Proteasome subunit binding, competition against biotin-epoxomicin labelling [2]: proteasome subunit (Z, MECL1, LMP7 and X) bands are efficiently competed away
- Proteasome subunit binding, competition against biotin-epoxomicin labelling ([2]; listed as epoximicin): do not have specificity towards subunits of either the constitutive or immunoproteasomes
- IC50 (RPMI8226 (MM)): 100 nM
- IC50 (H460 (Lung)): 100 nM
- IC50 (PC3 (Prostate)): 10 nM
- IC50 (WI-38 (Fibroblast)): 28 nM

Structure (SMILES): CCCCCCC(=O)N[C@@H](CO)C(=O)N[C@@H](CC(C)C)C(=O)[C@@]1(COCOC)CO1 [Compound 11]
- Proteasome subunit binding and specificity, competition against biotin-dihydroeponemycin labelling [1]: do not selectively target proteasome subunits; also recorded: dramatic loss in the potency and specificity compared to dihydroeponemycin
